{
  "source": "the NIST ThermoML archive (doi:10.1016/j.jct.2017.05.010)",
  "conditions": "101.33 kPa, Liquid, Single path-length method",
  "note": "Numbers after ± are expanded uncertainties.",
  "data": [
    {"smiles": "CCCCOCCCN", "note": "[3-butoxy-1-propanamine]", "values": [
      {"measurement": "speed of sound", "setting": "283.15 K", "result": "1387.3 ± 1.7", "unit": "m/s"},
      {"measurement": "speed of sound", "setting": "288.15 K", "result": "1367.3 ± 1.7", "unit": "m/s"},
      {"measurement": "speed of sound", "setting": "293.15 K", "result": "1346.7 ± 1.7", "unit": "m/s"},
      {"measurement": "speed of sound", "setting": "298.15 K", "result": "1326.4 ± 1.7", "unit": "m/s"},
      {"measurement": "speed of sound", "setting": "303.15 K", "result": "1306.7 ± 1.7", "unit": "m/s"}
    ]}
  ]
}
